Test results from ChEMBL document CHEMBL1938275, “Antibacterial activity of chalcones, hydrazones and oxadiazoles against methicillin-resistant Staphylococcus aureus” (Bioorg Med Chem Lett, 2012).
Converted amounts (≈) assume the structure as drawn.

Tests used:
[1] = tested on: Staphylococcus aureus; test: Antibacterial activity against methicillin-sensitive Staphylococcus aureus ATCC 25923 after 24 hrs by broth microdilution method; assay type: functional; details: ATCC 25923, 24 h
[2] = tested on: Staphylococcus aureus; test: Antibacterial activity against methicillin-resistant Staphylococcus aureus isolate 8 after 24 hrs by broth microdilution method; assay type: functional; details: isolate 8, 24 h
[3] = tested on: Staphylococcus aureus; test: Antibacterial activity against methicillin-resistant Staphylococcus aureus isolate 13 after 24 hrs by broth microdilution method; assay type: functional; details: isolate 13, 24 h
[4] = tested on: Staphylococcus aureus; test: Antibacterial activity against methicillin-resistant Staphylococcus aureus isolate 1 after 24 hrs by broth microdilution method; assay type: functional; details: isolate 1, 24 h
[5] = tested on: Staphylococcus aureus; test: Antibacterial activity against methicillin-resistant Staphylococcus aureus isolate 2 after 24 hrs by broth microdilution method; assay type: functional; details: isolate 2, 24 h
[6] = tested on: Staphylococcus aureus; test: Selectivity index, Ratio of CC50 for african green monkey Vero cells to IC50 for Staphylococcus aureus
[7] = Cytotoxicity against african green monkey Vero cells assessed as cell death after 72 hrs by MTT assay; assay type: cell-based; details: chlorocebus sabaeus
[8] = tested on: Staphylococcus aureus; test: Antibacterial activity against methicillin-resistant Staphylococcus aureus isolate 4 after 24 hrs by broth microdilution method; assay type: functional; details: isolate 4, 24 h
[9] = tested on: Staphylococcus aureus; test: Antibacterial activity against methicillin-resistant Staphylococcus aureus isolate 9 after 24 hrs by broth microdilution method; assay type: functional; details: isolate 9, 24 h
[10] = tested on: Staphylococcus aureus; test: Antibacterial activity against methicillin-resistant Staphylococcus aureus isolate 7 after 24 hrs by broth microdilution method; assay type: functional; details: isolate 7, 24 h
[11] = tested on: Staphylococcus aureus; test: Antibacterial activity against methicillin-resistant Staphylococcus aureus isolate 14 after 24 hrs by broth microdilution method; assay type: functional; details: isolate 14, 24 h
[12] = tested on: Staphylococcus aureus; test: Antibacterial activity against methicillin-resistant Staphylococcus aureus isolate 6 after 24 hrs by broth microdilution method; assay type: functional; details: isolate 6, 24 h
[13] = tested on: Staphylococcus aureus; test: Antibacterial activity against methicillin-resistant Staphylococcus aureus isolate 5 after 24 hrs by broth microdilution method; assay type: functional; details: isolate 5, 24 h
[14] = tested on: Vero; test: Cytotoxicity against African green monkey Vero cells assessed as inhibition of cell growth after 72 hrs by MTT assay; assay type: cell-based; details: Chlorocebus sabaeus
[15] = tested on: Staphylococcus aureus; test: Antibacterial activity against methicillin-resistant Staphylococcus aureus isolate 11 after 24 hrs by broth microdilution method; assay type: functional; details: isolate 11, 24 h
[16] = tested on: Staphylococcus aureus; test: Antibacterial activity against methicillin-resistant Staphylococcus aureus isolate 12 after 24 hrs by broth microdilution method; assay type: functional; details: isolate 12, 24 h
[17] = tested on: Staphylococcus aureus; test: Antibacterial activity against methicillin-resistant Staphylococcus aureus isolate 10 after 24 hrs by broth microdilution method; assay type: functional; details: isolate 10, 24 h
[18] = tested on: Staphylococcus aureus; test: Antibacterial activity against methicillin-resistant Staphylococcus aureus isolate 3 after 24 hrs by broth microdilution method; assay type: functional; details: isolate 3, 24 h
[19] = tested on: Staphylococcus aureus; test: Antibacterial activity against methicillin-resistant Staphylococcus aureus isolate 5 at 30 ug after 24 hrs by disk diffusion assay; assay type: functional; details: isolate 5, 24 h, read-out: DIZ
[20] = tested on: Staphylococcus aureus; test: Antibacterial activity against methicillin-resistant Staphylococcus aureus isolate 4 at 30 ug after 24 hrs by disk diffusion assay; assay type: functional; details: isolate 4, 24 h, read-out: DIZ

SMILES | MIC [1] | MIC [2] | MIC [3] | MIC [4] | MIC [5] | Ratio CC50/IC50 [6] | CC50 at 72 h [7] | MIC [8] | MIC [9] | MIC [10] | MIC [11] | MIC [12] | MIC [13] | IC50 [14] | MIC [15] | MIC [16] | MIC [17] | MIC [18] | zone of inhibition at 30 µg/disc [19] | zone of inhibition at 30 µg/disc [20]
CC(C)=CCC/C(C)=C/Cc1c(O)ccc(C(=O)/C=C/c2ccc(O)c(CC=C(C)C)c2)c1O | 31.2 µg/mL (≈ 67.7 µM) | – | – | – | – | – | – | – | – | – | – | – | – | – | – | – | – | – | – | –
COc1cc(C(=O)N/N=C/c2ccc([N+](=O)[O-])s2)cc(OC)c1OC | 15.6 µg/mL (≈ 42.8 µM) | 125 µg/mL (≈ 342 µM) | 125 µg/mL (≈ 342 µM) | 125 µg/mL (≈ 342 µM) | 125 µg/mL (≈ 342 µM) | 109.7 | 857 µg/mL (≈ 2340 µM) | 15.6 µg/mL (≈ 42.8 µM) | 125 µg/mL (≈ 342 µM) | 125 µg/mL (≈ 342 µM) | 125 µg/mL (≈ 342 µM) | 125 µg/mL (≈ 342 µM) | 125 µg/mL (≈ 342 µM) | 7.81 µg/mL (≈ 21.4 µM) | 125 µg/mL (≈ 342 µM) | 125 µg/mL (≈ 342 µM) | 125 µg/mL (≈ 342 µM) | 125 µg/mL (≈ 342 µM) | – | –
O=C(CCc1ccccc1O)c1ccccc1 | 500 µg/mL (≈ 2210 µM) | ≥ 1000 µg/mL | ≥ 1000 µg/mL | ≥ 1000 µg/mL | ≥ 1000 µg/mL | – | – | ≥ 1000 µg/mL | ≥ 1000 µg/mL | ≥ 1000 µg/mL | ≥ 1000 µg/mL | ≥ 1000 µg/mL | ≥ 1000 µg/mL | – | ≥ 1000 µg/mL | ≥ 1000 µg/mL | ≥ 1000 µg/mL | ≥ 1000 µg/mL | – | –
COc1ccc(C(=O)/C=C/c2ccc(O)cc2)c(O)c1CC=C(C)C | – | ≥ 1000 µg/mL | ≥ 1000 µg/mL | ≥ 1000 µg/mL | ≥ 1000 µg/mL | – | – | ≥ 1000 µg/mL | ≥ 1000 µg/mL | ≥ 1000 µg/mL | ≥ 1000 µg/mL | ≥ 1000 µg/mL | ≥ 1000 µg/mL | – | ≥ 1000 µg/mL | ≥ 1000 µg/mL | ≥ 1000 µg/mL | ≥ 1000 µg/mL | – | –
O=C(N/N=C/c1ccc([N+](=O)[O-])o1)c1ccccc1 | 62.5 µg/mL (≈ 241 µM) | 125 µg/mL (≈ 482 µM) | 62.5 µg/mL (≈ 241 µM) | 125 µg/mL (≈ 482 µM) | 62.5 µg/mL (≈ 241 µM) | 62.6 | 489 µg/mL (≈ 1890 µM) | 15.6 µg/mL (≈ 60.3 µM) | 125 µg/mL (≈ 482 µM) | 125 µg/mL (≈ 482 µM) | 62.5 µg/mL (≈ 241 µM) | 62.5 µg/mL (≈ 241 µM) | 62.5 µg/mL (≈ 241 µM) | 7.81 µg/mL (≈ 30.1 µM) | 125 µg/mL (≈ 482 µM) | 62.5 µg/mL (≈ 241 µM) | 15.6 µg/mL (≈ 60.3 µM) | 62.5 µg/mL (≈ 241 µM) | – | –
CO[C@@]1(NC(=O)Cc2cccs2)C(=O)N2C(C(=O)O)=C(COC(N)=O)CS[C@@H]21 [CEFOXITIN] | – | – | – | – | – | – | – | – | – | – | – | – | – | – | – | – | – | – | 33 mm | 22 mm
CC(C)=CCc1c(O)ccc(C(=O)/C=C/c2ccc(O)cc2)c1O [ISOBAVACHALCONE] | 31.2 µg/mL (≈ 96.3 µM) | 125 µg/mL (≈ 385 µM) | 125 µg/mL (≈ 385 µM) | 62.5 µg/mL (≈ 193 µM) | 62.5 µg/mL (≈ 193 µM) | 23.25 | 727 µg/mL (≈ 2240 µM) | 15.6 µg/mL (≈ 48.2 µM) | 62.5 µg/mL (≈ 193 µM) | 125 µg/mL (≈ 385 µM) | 62.5 µg/mL (≈ 193 µM) | 62.5 µg/mL (≈ 193 µM) | 62.5 µg/mL (≈ 193 µM) | 31.2 µg/mL (≈ 96.3 µM) | 62.5 µg/mL (≈ 193 µM) | 62.5 µg/mL (≈ 193 µM) | 125 µg/mL (≈ 385 µM) | 62.5 µg/mL (≈ 193 µM) | – | –
O=C(/C=C/c1ccc(O)cc1)c1ccc(O)cc1O [ISOLIQUIRITIGENIN] | 31.2 µg/mL (≈ 122 µM) | 62.5 µg/mL (≈ 244 µM) | 62.5 µg/mL (≈ 244 µM) | 62.5 µg/mL (≈ 244 µM) | 62.5 µg/mL (≈ 244 µM) | 14.8 | 464 µg/mL (≈ 1810 µM) | 62.5 µg/mL (≈ 244 µM) | 62.5 µg/mL (≈ 244 µM) | 62.5 µg/mL (≈ 244 µM) | 62.5 µg/mL (≈ 244 µM) | 62.5 µg/mL (≈ 244 µM) | 62.5 µg/mL (≈ 244 µM) | 31.2 µg/mL (≈ 122 µM) | 62.5 µg/mL (≈ 244 µM) | 62.5 µg/mL (≈ 244 µM) | 62.5 µg/mL (≈ 244 µM) | 62.5 µg/mL (≈ 244 µM) | – | –
O=C(CCc1ccc(O)cc1)c1c(O)cc(O)cc1O [PHLORETIN] | 250 µg/mL (≈ 912 µM) | 250 µg/mL (≈ 912 µM) | 250 µg/mL (≈ 912 µM) | 250 µg/mL (≈ 912 µM) | 250 µg/mL (≈ 912 µM) | 5.9 | 735 µg/mL (≈ 2680 µM) | 250 µg/mL (≈ 912 µM) | 250 µg/mL (≈ 912 µM) | 250 µg/mL (≈ 912 µM) | 250 µg/mL (≈ 912 µM) | 250 µg/mL (≈ 912 µM) | 250 µg/mL (≈ 912 µM) | 125 µg/mL (≈ 456 µM) | 250 µg/mL (≈ 912 µM) | 250 µg/mL (≈ 912 µM) | 250 µg/mL (≈ 912 µM) | 250 µg/mL (≈ 912 µM) | – | –
CN[C@H](CC(C)C)C(=O)N[C@H]1C(=O)N[C@@H](CC(N)=O)C(=O)N[C@H]2C(=O)N[C@H]3C(=O)N[C@H](C(=O)N[C@H](C(=O)O)c4cc(O)cc(O)c4-c4cc3ccc4O)[C@H](O)c3ccc(c(Cl)c3)Oc3cc2cc(c3O[C@@H]2O[C@H](CO)[C@@H](O)[C@H](O)[C@H]2O[C@H]2C[C@](C)(N)[C@H](O)[C@H](C)O2)Oc2ccc(cc2Cl)[C@H]1O [VANCOMYCIN] | 0.2 µg/mL (≈ 0.138 µM) | 0.8 µg/mL (≈ 0.552 µM) | 0.8 µg/mL (≈ 0.552 µM) | 0.8 µg/mL (≈ 0.552 µM) | 0.8 µg/mL (≈ 0.552 µM) | – | – | 0.8 µg/mL (≈ 0.552 µM) | 0.8 µg/mL (≈ 0.552 µM) | 0.8 µg/mL (≈ 0.552 µM) | 0.8 µg/mL (≈ 0.552 µM) | 0.4 µg/mL (≈ 0.276 µM) | 0.4 µg/mL (≈ 0.276 µM) | – | 0.8 µg/mL (≈ 0.552 µM) | 0.8 µg/mL (≈ 0.552 µM) | 0.8 µg/mL (≈ 0.552 µM) | 0.8 µg/mL (≈ 0.552 µM) | – | –
